Each structure is given as a SMILES string. Where two headings read alike, the source gives them in different places.

This is an account of results in PMC10498496, “Design and Synthesis of Poly(2,2′-Bipyridyl) Ligands for Induction of Cell Death in Cancer Cells: Control of Anticancer Activity by Complexation/Decomplexation with Biorelevant Metal Cations” (Inorganic Chemistry, 2023).

What all share (format): cell-based, human
One assay concerns A549 cells. Kind of assay: MTT assay, cytotoxicity against A549 cells. The conditions noted are these: treated for 24 h. The procedure:
(§1) Second, we conducted the quantitative evaluation of the cytotoxicity of 1, 2, and 3 against various cancer cell lines by an MTT (3-(4,5-dimethylthiazol-2-yl)-2,5-diphenyltetrazolium bromide) assay. Jurkat, MOLT-4 (these two cell lines are human T-lymphocyte leukemia cells), and U937 (human lymphoma) cells (1.5 × 10^4 cells/well) were incubated in RPMI 1640 medium containing 10% FBS (fetal bovine serum) containing 1, 2, and 3 (0–25 μM) at 37 °C for 24 h, and then treated with the MTT reagent. A549 (human alveolar adenocarcinoma) and IMR-90 (normal human fetal lung fibroblast as model of normal cells) cells (1.5 × 10^4 cells/well) were incubated in DMEM (low glucose) with 10% FBS containing 1, 2, and 3 (0–25 μM), HeLa S3 (human epithelial carcinoma cells) cells (1.5 × 10^4 cells/well) were incubated in MEM with 10% FBS containing these ligands (0–25 μM) for 24 h at 37 °C and then treated with the MTT reagent.
(§2) HeLa S3 cells and A549 cells in MEM and DMEM medium with 10% FBS (1.5 × 10^5 cells/mL per one well) were seeded in to 96 well plates and incubated for 24 h, MTT assay of poly(bpy) ligands (0–25 μM), cisplatin (0–100 μM), and actinomycin D (0–10 μM) was performed according to the same procedure described above.
For orientation: Tetrazolium assays rely on reduction of a dye to a coloured formazan, in cell work by metabolically active cells.

The subject of a further assay is U937 cells. Nature of the assay: MTT assay, cytotoxicity against U937 cells. Conditions: MTT, 37 °C, treated for 24 h, read-out: EC50 against U937. The procedure:
as §1
(§3) • (a) Cytotoxic study. Jurkat cells, MOLT-4 cells, and U937 cells (1.5 × 10^5 cells/mL per one well) were incubated in 10% FBS RPMI 1640 medium containing 1 (0–25 μM), 2 (0–25 μM) , 3, cisplatin (0–100 μM), and actinomycin D (0–10 μM) under 5% CO2 at 37 °C for 24 h on 96 well plates (Watson), 0.5% MTT (3-(4,5-dimethyl-2-thiazolyl)-2,5-diphenyl-2H-tetrazolium bromide) reagent in PBS (10 μL) was then added to the cells. After incubation at 37 °C for 4 h, a formazan lysis solution (10% SDS in 0.01 N HCl) (100 μL) was added and the resulting solution was incubated overnight under the same conditions, followed by the measurement of absorbance at 570 nm with a microplate reader (BIO-RAD).

The next assay concerns HeLa S3 cells. Nature of the assay: MTT assay, cytotoxicity against HeLa S3 cells. The conditions noted are these: MTT, 37 °C, read-out: EC50 against HeLa S3 (converted). The procedure: Second, we conducted the quantitative evaluation of the cytotoxicity of 1, 2, and 3 against various cancer cell lines by an MTT (3-(4,5-dimethylthiazol-2-yl)-2,5-diphenyltetrazolium bromide) assay. Jurkat, MOLT-4 (these two cell lines are human T-lymphocyte leukemia cells), and U937 (human lymphoma) cells (1.5 × 10^4 cells/well) were incubated in RPMI 1640 medium containing 10% FBS (fetal bovine serum) containing 1, 2, and 3 (0–25 μM) at 37 °C for 24 h, and then treated with the MTT reagent. […]
as §2

Assay [1] concerns Jurkat cells. Kind of assay: MTT assay in the presence of the caspase inhibitor Z-VAD-fmk. The conditions noted are these: Z-VAD-fmk 15 μM 3 h. The text has this: We, therefore, selected Jurkat cells to study the cell death mechanism in detail, in this work. Programmed cell death (PCD) is generally classified into several types such as apoptosis, necroptosis, paraptosis, autophagic cell death, and so on.[30]−[33] We hypothesized that 1 and 2 function as inducers of apoptosis, which is a type of PCD in cancer cells, based on the morphological change of Jurkat cells observed in Figure 1 and mechanism of chelation therapy proposed in the previous studies.[11]−[19] It is known that the caspases family are cysteine proteases that play important roles in apoptosis and necroptosis.[38] Therefore, the effect of Z-VAD-fmk, which is known as one of general caspase inhibitors, on the cell death induced by 1 and cisplatin was examined.
Figure 3 Effect of Z-VAD-fmk on the cell death in Jurkat cells induced by 1. Jurkat cells were incubated in RPMI in the presence of Z-VAD-fmk (15 μM) for 3 h and then treated with (a) 1 (1 μM) and (b) cisplatin (50 μM) for 24 h. Asterisks indicate significant difference with *(P ≤ 0.05).
To investigate the mechanism responsible for the BAPTA-AM-induced cell death in Jurkat cells, Jurkat cells were incubated with Z-VAD-fmk (15 μM) for 3 h, and then cells were treated with BAPTA-AM (12.5 μM) for 24 h followed by an MTT assay.
IMR-90 cells in DMEM medium with 10% FBS (1.5 × 10^5 cells/mL) were seeded in to 96 well plates and incubated for 24 h at 37 °C, MTT assays with poly(bpy) ligands and their metal complexes (0–100 μM), cisplatin (0–100 μM), and actinomycin D (0–10 μM) were performed following the same procedure described above. These experiments were carried out at least three times. • (b) MTT assay in the presence of a caspase inhibitor. […]

The subject of another assay is MOLT-4 cells. Nature of the assay: MTT assay, cytotoxicity against MOLT-4 cells. Conditions: MTT, 37 °C, read-out: EC50 against MOLT-4. The procedure:
as §1, §3

For assay [2], the system named is Jurkat cells. Kind of assay: MTT assay, cytotoxicity against Jurkat cells. The conditions noted are these: MTT, 37 °C, read-out: EC50 against Jurkat (converted). As for the experimental part: as §1, §3

In general, EC50 refers to the concentration at which the effect is half-maximal. Consider `N.N.[Cl][Pt][Cl]` [cisplatin, reference compound], for which the EC50 with A549 cells (37 °C) is > 100 µM; in the assay on U937 cells, 24 ± 0.9 µM; in the assay with HeLa S3 cells (treated for 24 h), 29 ± 1.2 µM; with MOLT-4 cells (treated for 24 h), 14 ± 0.3 µM; with Jurkat cells [2] (treated for 24 h), 33 ± 0.2 µM. Moreover, the “cell viability of Jurkat cells after preincubation with Z-VAD-fmk” value in the assay on Jurkat cells [1] (then compound 50 μM for 24 h) is recorded as “considerably restored”.

As to `c1ccc(-c2ccc(OCc3cc(COc4ccc(-c5ccccn5)nc4)cc(COc4ccc(-c5ccccn5)nc4)c3)cn2)nc1` [compound 1, 1,3,5-Tris(([2,2′-Bipyridin]-5-yloxy)methyl)benzene], the 50% effective concentration (EC50) was 15 ± 0.79 µM with A549 cells (Homo sapiens, A549, 37 °C); 0.32 ± 0.22 µM in the assay with U937 cells (Homo sapiens, U-937); 16 ± 0.33 µM in the assay on HeLa S3 cells (Homo sapiens, HeLa S3, treated for 24 h); 2.8 µM in the assay on HeLa S3 cells (Homo sapiens, HeLa S3, treated for 48 h); 0.21 ± 0.36 µM with MOLT-4 cells (Homo sapiens, MOLT-4, treated for 24 h); < 0.1 µM with MOLT-4 cells (Homo sapiens, MOLT-4, treated for 48 h). Also, the EC50 with Jurkat cells [2] (Homo sapiens, Jurkat, treated for 24 h) was 0.14 ± 0.13 µM; in the assay on Jurkat cells [2] (Homo sapiens, Jurkat, treated for 48 h) it was 0.064 µM. Further, in the assay with Jurkat cells [1] (then compound 1 μM for 24 h), the “cell viability of Jurkat cells after preincubation with Z-VAD-fmk” value is reported as “considerably restored”.
